According to PubChem BioAssay (NCI):
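1) Cells in 96-well plates. 2) Compound, 48 h, 5 concentrations. 3) Linear interpolation between surrounding doses. 4) Unreached endpoint = highest concentration. Abbreviation: GI50, concentration required for 50% inhibition of growth. TGI: concentration producing complete growth inhibition.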

How the values were obtained:
Assay in all cases: DTP human tumour cell line panel, 48 h
[1] = test system: HCT-116 colon
[2] = test system: OVCAR-5 ovarian
[3] = test system: UO-31 renal
[4] = test system: A549 NSCLC
[5] = test system: U251 CNS
[6] = test system: OVCAR-8 ovarian
[7] = test system: SF-268 CNS
[8] = test system: HCC-2998 colon
[9] = test system: SR leukemia
[10] = test system: HCT-15 colon
[11] = test system: COLO 205 colon
[12] = test system: RXF 393 renal
[13] = test system: DU-145 prostate
[14] = test system: MCF7 breast
[15] = test system: BT-549 breast
[16] = test system: NCI/ADR-RES ovarian
[17] = test system: NCI-H226 lung
[18] = test system: TK-10 renal
[19] = test system: NCI-H23 lung
[20] = test system: SK-OV-3 ovarian
[21] = test system: LOX IMVI melanoma
[22] = test system: MOLT-4 leukemia
[23] = test system: OVCAR-4 ovarian
[24] = test system: HL-60(TB) leukemia
[25] = test system: T-47D breast
[26] = test system: ACHN renal
[27] = test system: UACC-62 melanoma
[28] = test system: SK-MEL-28 melanoma
[29] = test system: HOP-62 NSCLC
[30] = test system: OVCAR-3 ovarian
[31] = test system: IGROV1 ovarian
[32] = test system: SF-539 CNS
[33] = test system: SF-295 CNS
[34] = test system: SK-MEL-2 melanoma
[35] = test system: CCRF-CEM leukemia
[36] = test system: 786-0 renal
[37] = test system: HS 578T breast
[38] = test system: M14 melanoma
[39] = test system: RPMI-8226 leukemia
[40] = test system: SK-MEL-5 melanoma
[41] = test system: SNB-19 CNS
[42] = test system: UACC-257 melanoma
[43] = test system: A498 renal
[44] = test system: MDA-MB-435
[45] = test system: EKVX NSCLC
[46] = test system: SW-620 colon
[47] = test system: MALME-3M melanoma
[48] = test system: PC-3 prostate
[49] = test system: K-562 leukemia
[50] = test system: KM12 colon
[51] = test system: NCI-H522 lung
[52] = test system: SNB-75 CNS
[53] = test system: CAKI-1 renal
[54] = test system: SN12C renal
[55] = test system: HT29 colon
[56] = test system: NCI-H460 lung
[57] = test system: MDA-MB-231 breast
[58] = test system: HOP-92 NSCLC

Structure (SMILES): CS(=O)(=O)c1ccc(-c2cnc(N)c(C(=O)Nc3ccccc3)n2)cc1
- GI50 [1]: 11.4 µM
- TGI [1]: > 100 µM
- GI50 [2]: > 100 µM
- TGI [2]: > 100 µM
- GI50 [3]: 5.45 µM
- TGI [3]: > 42.8 µM
- GI50 [4]: > 24.2 µM
- TGI [4]: > 100 µM
- GI50 [5]: 31.7 µM
- TGI [5]: > 100 µM
- GI50 [6]: > 45 µM
- TGI [6]: > 100 µM
- GI50 [7]: 25 µM
- TGI [7]: > 100 µM
- GI50 [8]: 3.9 µM
- TGI [8]: > 100 µM
- GI50 [9]: 2.39 µM
- TGI [9]: > 100 µM
- GI50 [10]: 5.92 µM
- TGI [10]: > 100 µM
- GI50 [11]: > 43 µM
- TGI [11]: > 100 µM
- GI50 [12]: 2.69 µM
- TGI [12]: > 50.1 µM
- GI50 [13]: 8.35 µM
- TGI [13]: > 100 µM
- GI50 [14]: 10.8 µM
- TGI [14]: > 100 µM
- GI50 [15]: 7.87 µM
- TGI [15]: 40.8 µM
- GI50 [16]: 22.6 µM
- TGI [16]: > 100 µM
- GI50 [17]: > 100 µM
- TGI [17]: > 100 µM
- GI50 [18]: 16.9 µM
- TGI [18]: > 100 µM
- GI50 [19]: 4.84 µM
- TGI [19]: > 100 µM
- GI50 [20]: 6.85 µM
- TGI [20]: > 100 µM
- GI50 [21]: 4.2 µM
- TGI [21]: > 100 µM
- GI50 [22]: 3.4 µM
- TGI [22]: > 100 µM
- GI50 [23]: 9.86 µM
- TGI [23]: > 100 µM
- GI50 [24]: 5.62 µM
- TGI [24]: > 100 µM
- GI50 [25]: > 100 µM
- TGI [25]: > 100 µM
- GI50 [26]: 3.92 µM
- TGI [26]: 29.6 µM
- GI50 [27]: > 51.9 µM
- TGI [27]: > 100 µM
- GI50 [28]: 98.6 µM
- TGI [28]: > 100 µM
- GI50 [29]: 18.8 µM
- TGI [29]: > 100 µM
- GI50 [30]: 15.7 µM
- TGI [30]: > 100 µM
- GI50 [31]: 5.17 µM
- TGI [31]: > 100 µM
- GI50 [32]: 6.81 µM
- TGI [32]: > 100 µM
- GI50 [33]: 24.2 µM
- TGI [33]: > 100 µM
- GI50 [34]: 7.87 µM
- TGI [34]: > 96 µM
- GI50 [35]: 4 µM
- TGI [35]: > 100 µM
- GI50 [36]: 3.71 µM
- TGI [36]: > 100 µM
- GI50 [37]: > 100 µM
- TGI [37]: > 100 µM
- GI50 [38]: 20.7 µM
- TGI [38]: > 100 µM
- GI50 [39]: > 100 µM
- TGI [39]: > 100 µM
- GI50 [40]: 28.7 µM
- TGI [40]: > 100 µM
- GI50 [41]: > 81.5 µM
- TGI [41]: > 100 µM
- GI50 [42]: > 100 µM
- TGI [42]: > 100 µM
- GI50 [43]: 6.59 µM
- TGI [43]: > 100 µM
- GI50 [44]: > 100 µM
- TGI [44]: > 100 µM
- GI50 [45]: > 92.3 µM
- TGI [45]: > 100 µM
- GI50 [46]: > 100 µM
- TGI [46]: > 100 µM
- GI50 [47]: > 100 µM
- TGI [47]: > 100 µM
- GI50 [48]: > 100 µM
- TGI [48]: > 100 µM
- GI50 [49]: 5.34 µM
- TGI [49]: > 100 µM
- GI50 [50]: > 100 µM
- TGI [50]: > 100 µM
- GI50 [51]: > 54.8 µM
- TGI [51]: > 100 µM
- GI50 [52]: 7.22 µM
- TGI [52]: > 100 µM
- GI50 [53]: 4.96 µM
- TGI [53]: > 55.8 µM
- GI50 [54]: 6.81 µM
- TGI [54]: > 100 µM
- GI50 [55]: 7.5 µM
- TGI [55]: > 100 µM
- GI50 [56]: 10.7 µM
- TGI [56]: > 100 µM
- GI50 [57]: > 67.6 µM
- TGI [57]: > 100 µM
- GI50 [58]: 24.3 µM
- TGI [58]: > 100 µM
